Source: patent US10829520B2, “Beta-hairpin peptidomimetics” (POLYPHOR AG, priority 2015, dated 2020)
Where a SMILES comes first, the peptide text is derived from it. Bridges are numbered along the chain shown (N, C = ends). [ ]: non-standard residue; d: D form. The star is where a group is joined. NαAmidinoTrp = N=C(N)N[C@@H](Cc1c[nH]c2ccccc12)C(=O)*; Pen = CC(C)(S)[C@H](N)C(=O)O; Tle = CC(C)(C)[C@H](N)C(=O)O; dDab = NCC[C@@H](N)C(=O)O; Orn = NCCC[C@H](N)C(=O)O; Dab = NCC[C@H](N)C(=O)O; Sar = CNCC(=O)O

Columns and labels:
Assay type in all cases: cell-based
[1] = test system: human red blood cells (hRBC); test: Hemolysis of human red blood cells; details: red cells of human, 1 h
Method in brief: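 Peptides at 100 μg/mL were incubated with PBS-washed fresh human erythrocytes (20% v/v, ~0.9×10^9 cells/mL final) for 1 h at 37° C. with shaking. Supernatant OD540 was read after 8-fold dilution; percent hemolysis was expressed relative to the 2.5% Triton X-100 full-lysis control, with PBS/0.001% acetic acid as 0%.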

[2] = test system: Acinetobacter baumannii 872842; details: 872842
[3] = test system: Klebsiella pneumoniae SSI #3010; details: SSI #3010
Method in brief: (§1)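 Peptide MICs were determined by CLSI broth microdilution in cation-adjusted Mueller-Hinton II broth with 0.002% polysorbate 80, inoculum approx. 10^6 CFU/mL. Two-fold serial dilutions of peptide were tested. MIC was the lowest concentration (μg/mL) with no visible growth after 18-20 hours at 35° C.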

[4] = test system: Pseudomonas aeruginosa ATCC 27853; details: ATCC 27853
Method in brief: as §1

[5] = test system: Klebsiella pneumoniae 968733; details: 968733
[6] = test system: Acinetobacter baumannii DSM 30008; details: DSM 30008
Method in brief: as §1

[7] = test system: Escherichia coli ATCC 25922; details: ATCC 25922
Method in brief: as §1

Escherichia coli 926415 = details: 926415

SMILES: CC(=O)N[C@@H](Cc1c[nH]c2ccccc12)C(=O)N[C@@H](CCN)C(=O)N[C@H](C(=O)N[C@H]1CC(=O)NCC[C@@H](C(=O)N[C@@H](Cc2ccc(O)cc2)C(=O)N[C@@H](CCN)C(=O)N[C@H](C(=O)N[C@@H](CCN)C(=O)N[C@@H](CCN)C(=O)N[C@@H](CCN)C(=O)N[C@H]2CCNC(=O)[C@H]([C@@H](C)O)NC(=O)[C@H](CCN)NC(=O)[C@H](CCN)NC(=O)[C@H](CC(C)C)NC(=O)[C@@H](Cc3ccccc3)NC(=O)[C@H](CCN)NC2=O)[C@@H](C)O)NC(=O)[C@H](C(C)C)NC(=O)[C@@H]2CCCN2C(=O)[C@H]2CCCN2C(=O)[C@H](Cc2c[nH]cn2)NC1=O)C(C)(C)C [Ex. 167] (Ac-W[Dab][Tle]DH[dP]PV[Dab]Y[Dab]T[Dab][Dab][Dab][Dab][Dab][dF]L[Dab][Dab]T; lactam 4-9, 16-C)
- Hemolysis at 100 μg/mL [1]; 100: <1%
- Acinetobacter baumannii 872842 MIC [2]: 1 µg/mL
- Klebsiella pneumoniae SSI #3010 MIC [3]: 0.25 µg/mL
- Pseudomonas aeruginosa ATCC 27853 MIC [4]: 0.125 µg/mL
- Klebsiella pneumoniae 968733 MIC [5]: 2 µg/mL
- Acinetobacter baumannii DSM 30008 MIC [6]: 0.5 µg/mL
- Escherichia coli ATCC 25922 MIC [7]: 0.25 µg/mL
- Escherichia coli 926415 MIC (Escherichia coli 926415): 1 µg/mL

SMILES: CC(=O)N[C@@H](Cc1c[nH]c2ccccc12)C(=O)N[C@@H](CCN)C(=O)N[C@H](C(=O)N[C@H]1CC(=O)NCC[C@@H](C(=O)N[C@@H](Cc2ccc(O)cc2)C(=O)N[C@@H](CCN)C(=O)N[C@H](C(=O)N[C@@H](CCN)C(=O)N[C@@H](CCN)C(=O)N[C@@H](CCN)C(=O)N[C@H]2CCNC(=O)[C@H]([C@@H](C)O)NC(=O)[C@H](CCN)NC(=O)[C@H](CCN)NC(=O)[C@H](CC(C)C)NC(=O)[C@@H](CC(C)C)NC(=O)[C@H](CCN)NC2=O)[C@@H](C)O)NC(=O)[C@H](C(C)C)NC(=O)[C@@H]2CCCN2C(=O)[C@H]2CCCN2C(=O)[C@H](Cc2c[nH]cn2)NC1=O)C(C)(C)C [Ex. 168] (Ac-W[Dab][Tle]DH[dP]PV[Dab]Y[Dab]T[Dab][Dab][Dab][Dab][Dab][dL]L[Dab][Dab]T; lactam 4-9, 16-C)
- Hemolysis at 100 μg/mL [1]; 100: 3%
- Acinetobacter baumannii 872842 MIC [2]: 1 µg/mL
- Klebsiella pneumoniae SSI #3010 MIC [3]: 1 µg/mL
- Pseudomonas aeruginosa ATCC 27853 MIC [4]: 0.25 µg/mL
- Klebsiella pneumoniae 968733 MIC [5]: 4 µg/mL
- Acinetobacter baumannii DSM 30008 MIC [6]: 2 µg/mL
- Escherichia coli ATCC 25922 MIC [7]: 0.5 µg/mL
- Escherichia coli 926415 MIC (Escherichia coli 926415): 0.5 µg/mL

SMILES: CC(C)C[C@@H]1NC(=O)[C@H](CCCNC(=N)N)NC(=O)[C@@H](CCN)NC(=O)[C@H](C(C)C)NC(=O)[C@@H](NC(=O)[C@H](Cc2ccc(O)cc2)NC(=O)[C@H](CO)NC(=O)[C@@H](N)Cc2c[nH]c3ccccc23)CSSC[C@@H](C(=O)N[C@@H](Cc2ccc(O)cc2)C(=O)N[C@@H](CC(N)=O)C(=O)N(C)CC(=O)N[C@@H](CCN)C(=O)N[C@H](C(=O)N[C@@H](CCN)C(=O)N[C@H]2CCNC(=O)[C@H]([C@@H](C)O)NC(=O)[C@H](CCN)NC(=O)[C@H](CCN)NC(=O)[C@H](CC(C)C)NC(=O)[C@@H](CC(C)C)NC(=O)[C@H](CCN)NC2=O)[C@@H](C)O)NC1=O [Ex. 169] (H-WSYCV[dDab]RLCYN[Sar][Dab]T[Dab][Dab][Dab][dL]L[Dab][Dab]T; disulfide 4-9; lactam 16-C)
- Hemolysis at 100 μg/mL ([1]; 100 μg/mL): 1%
- Acinetobacter baumannii 872842 MIC [2]: 1 µg/mL
- Klebsiella pneumoniae SSI #3010 MIC [3]: 0.25 µg/mL
- Pseudomonas aeruginosa ATCC 27853 MIC [4]: 1 µg/mL
- Klebsiella pneumoniae 968733 MIC [5]: 2 µg/mL
- Acinetobacter baumannii DSM 30008 MIC [6]: 1 µg/mL
- Escherichia coli ATCC 25922 MIC [7]: 0.5 µg/mL
- Escherichia coli 926415 MIC (Escherichia coli 926415): 0.5 µg/mL

SMILES: CC[C@H](C)[C@@H]1NC(=O)[C@@H]2CCCN2C(=O)[C@H]2CCCN2C(=O)[C@H](Cc2ccc(O)cc2)NC(=O)[C@@H](NC(=O)[C@@H](NC(=O)[C@H](CCN)NC(=O)[C@@H](N)CC(C)C)C(C)C)CSSC[C@@H](C(=O)N[C@@H](Cc2ccc(O)cc2)C(=O)N[C@@H](CCN)C(=O)N(C)CC(=O)N[C@@H](CCN)C(=O)N[C@H](C(=O)N[C@@H](CCN)C(=O)N[C@H]2CCNC(=O)[C@H]([C@@H](C)O)NC(=O)[C@H](CCN)NC(=O)[C@H](CCN)NC(=O)[C@H](CC(C)C)NC(=O)[C@@H](CC(C)C)NC(=O)[C@H](CCN)NC2=O)[C@@H](C)O)NC1=O [Ex. 170] (H-L[Dab]VCY[dP]PICY[Dab][Sar][Dab]T[Dab][Dab][Dab][dL]L[Dab][Dab]T; disulfide 4-9; lactam 16-C)
- Hemolysis at 100 μg/mL ([1]; 100 μg/mL): 1%
- Acinetobacter baumannii 872842 MIC [2]: 0.125 µg/mL
- Klebsiella pneumoniae SSI #3010 MIC [3]: 1 µg/mL
- Pseudomonas aeruginosa ATCC 27853 MIC [4]: 0.5 µg/mL
- Klebsiella pneumoniae 968733 MIC [5]: 0.5 µg/mL
- Acinetobacter baumannii DSM 30008 MIC [6]: 1 µg/mL
- Escherichia coli ATCC 25922 MIC [7]: 0.5 µg/mL
- Escherichia coli 926415 MIC (Escherichia coli 926415): 0.25 µg/mL

SMILES: CC(=O)N[C@@H](CC(C)C)C(=O)N[C@@H](CO)C(=O)N[C@H](C(=O)N[C@H]1CSSC[C@@H](C(=O)N[C@@H](Cc2ccc(O)cc2)C(=O)N[C@@H](CC(N)=O)C(=O)N[C@@H](CCCN)C(=O)N[C@H](CCN)C(=O)N[C@@H](CCN)C(=O)N[C@@H](CCN)C(=O)N[C@H]2CCNC(=O)[C@H]([C@@H](C)O)NC(=O)[C@H](CCN)NC(=O)[C@H](CCN)NC(=O)[C@H](CC(C)C)NC(=O)[C@@H](Cc3ccccc3)NC(=O)[C@H](CCN)NC2=O)NC(=O)[C@H](CC(C)C)NC(=O)[C@H](CCCNC(=N)N)NC(=O)[C@@H](CCN)NC(=O)[C@H](C(C)C)NC1=O)C(C)(C)C [Ex. 171] (Ac-LS[Tle]CV[dDab]RLCYN[Orn][dDab][Dab][Dab][Dab][Dab][dF]L[Dab][Dab]T; disulfide 4-9; lactam 16-C)
- Hemolysis at 100 μg/mL ([1]; 100 μg/mL): 2%
- Acinetobacter baumannii 872842 MIC [2]: 2 µg/mL
- Klebsiella pneumoniae SSI #3010 MIC [3]: 1 µg/mL
- Pseudomonas aeruginosa ATCC 27853 MIC [4]: 0.5 µg/mL
- Klebsiella pneumoniae 968733 MIC [5]: 4 µg/mL
- Acinetobacter baumannii DSM 30008 MIC [6]: 2 µg/mL
- Escherichia coli ATCC 25922 MIC [7]: 1 µg/mL
- Escherichia coli 926415 MIC (Escherichia coli 926415): 2 µg/mL

SMILES: CC(C)C[C@@H]1NC(=O)[C@@H](CC(C)C)NC(=O)[C@H](CCN)NC(=O)[C@@H](NC(=O)[C@H](CCN)NC(=O)[C@H](CCN)NC(=O)[C@H](CCN)NC(=O)CNC(=O)[C@H](CCN)NC(=O)[C@H](Cc2ccc(O)cc2)NC(=O)[C@@H]2CCNC(=O)C[C@H](NC(=O)[C@@H](NC(=O)[C@H](CCN)NC(=O)[C@H](Cc3c[nH]c4ccccc34)NC(=N)N)C(C)C)C(=O)N[C@@H](Cc3ccc(O)cc3)C(=O)N3CCC[C@@H]3C(=O)N3CCC[C@H]3C(=O)N[C@@H](C(C)C)C(=O)N2)CCNC(=O)[C@H]([C@@H](C)O)NC(=O)[C@H](CCN)NC(=O)[C@H](CCN)NC1=O [Ex. 172] (NαAmidinoTrp-[Dab]VDY[dP]PV[Dab]Y[Dab]G[Dab][Dab][Dab][Dab][Dab][dL]L[Dab][Dab]T; lactam 3-8, 15-C)
- Hemolysis at 100 μg/mL [1]; 100: 1%
- Acinetobacter baumannii 872842 MIC [2]: 0.25 µg/mL
- Klebsiella pneumoniae SSI #3010 MIC [3]: 0.125 µg/mL
- Pseudomonas aeruginosa ATCC 27853 MIC [4]: 0.125 µg/mL
- Klebsiella pneumoniae 968733 MIC [5]: 0.5 µg/mL
- Acinetobacter baumannii DSM 30008 MIC [6]: 0.0625 µg/mL
- Escherichia coli ATCC 25922 MIC [7]: 0.0625 µg/mL
- Escherichia coli 926415 MIC (Escherichia coli 926415): 0.5 µg/mL

SMILES: CC(C)C[C@@H]1NC(=O)[C@@H](CC(C)C)NC(=O)[C@H](CCN)NC(=O)[C@@H](NC(=O)[C@H](CCN)NC(=O)[C@@H](NC(=O)[C@H](CCN)NC(=O)CNC(=O)[C@H]2NC(=O)[C@H](Cc3ccc(O)cc3)NC(=O)[C@H](CO)NC(=O)[C@H](CC(C)C)NC(=O)[C@@H]3CCCN3C(=O)[C@H]3CCCN3C(=O)[C@H](CO)NC(=O)[C@H](C)NC(=O)[C@H](C(C)C)NC(=O)[C@@H](NC(=O)[C@H](Cc3c[nH]c4ccccc34)NC(=N)N)CSSC2(C)C)[C@@H](C)O)CCNC(=O)[C@H]([C@@H](C)O)NC(=O)[C@H](CCN)NC(=O)[C@H](CCN)NC1=O [Ex. 173] (NαAmidinoTrp-CVAS[dP]PLSY[Pen]G[Dab]T[Dab][Dab][Dab][dL]L[Dab][Dab]T; disulfide 1-10; lactam 15-C)
- Hemolysis at 100 μg/mL ([1]; 100 μg/mL): 1%
- Acinetobacter baumannii 872842 MIC [2]: 0.25 µg/mL
- Klebsiella pneumoniae SSI #3010 MIC [3]: 0.125 µg/mL
- Pseudomonas aeruginosa ATCC 27853 MIC [4]: 0.5 µg/mL
- Klebsiella pneumoniae 968733 MIC [5]: 1 µg/mL
- Acinetobacter baumannii DSM 30008 MIC [6]: 0.125 µg/mL
- Escherichia coli ATCC 25922 MIC [7]: 0.125 µg/mL
- Escherichia coli 926415 MIC (Escherichia coli 926415): 0.5 µg/mL
